Data taken from the NIST ThermoML archive (doi:10.1021/acs.jced.7b00773).
Numbers after ± are expanded uncertainties.

Conditions: Liquid

C=CCn1cc[n+](C)c1.O=S(=O)([N-]S(=O)(=O)C(F)(F)F)C(F)(F)F
Conditions	mass density, 372.5 K [kg/m3]	mass density, 373.15 K [kg/m3]	mass density, 392.8 K [kg/m3]	mass density, 413.1 K [kg/m3]	mass density, 432.7 K [kg/m3]	viscosity, 373.15 K [mPa·s]
100 kPa, Concentric cylinders viscometry	–	–	–	–	–	5.498 ± 0.26
100 kPa, Vibrating tube method	–	1427.3 ± 3.2	–	–	–	–
10000 kPa, Bellows volumetry	–	–	1417.8 ± 3.6	1399.4 ± 3.6	1381.4 ± 3.6	–
20000 kPa, Bellows volumetry	–	–	1427.3 ± 3.6	1409.4 ± 3.6	1392 ± 3.6	–
30000 kPa, Bellows volumetry	–	–	1436.1 ± 3.6	1418.9 ± 3.6	1401.8 ± 3.6	–
40000 kPa, Bellows volumetry	1461.6 ± 3.6	–	1444.4 ± 3.6	1427.7 ± 3.6	1411.1 ± 3.6	–
50000 kPa, Bellows volumetry	1469.1 ± 3.6	–	1452.4 ± 3.6	1436 ± 3.6	1419.9 ± 3.6	–
60000 kPa, Bellows volumetry	1476.1 ± 3.6	–	1459.8 ± 3.6	1443.8 ± 3.6	1428 ± 3.6	–
70000 kPa, Bellows volumetry	1482.9 ± 3.6	–	1466.9 ± 3.6	1451.3 ± 3.6	1435.9 ± 3.6	–
80000 kPa, Bellows volumetry	1489.5 ± 3.6	–	1473.7 ± 3.6	1458.4 ± 3.6	1443.4 ± 3.6	–
90000 kPa, Bellows volumetry	1495.6 ± 3.6	–	1480.1 ± 3.6	1465.2 ± 3.6	1450.5 ± 3.6	–
100000 kPa, Bellows volumetry	1501.6 ± 3.6	–	1486.5 ± 3.6	1471.7 ± 3.6	1457.2 ± 3.6	–
110000 kPa, Bellows volumetry	1507.5 ± 3.6	–	1492.5 ± 3.6	1478 ± 3.6	1463.7 ± 3.6	–
120000 kPa, Bellows volumetry	1513.3 ± 3.6	–	1498.5 ± 3.6	1484.2 ± 3.6	1470.1 ± 3.6	–
130000 kPa, Bellows volumetry	1518.7 ± 3.6	–	1504.2 ± 3.6	1490 ± 3.6	1476.1 ± 3.6	–
140000 kPa, Bellows volumetry	1524 ± 3.6	–	1509.6 ± 3.6	1495.8 ± 3.6	1482 ± 3.6	–
150000 kPa, Bellows volumetry	1529.2 ± 3.6	–	1514.9 ± 3.6	1501.3 ± 3.6	1487.7 ± 3.6	–
160000 kPa, Bellows volumetry	1534.2 ± 3.6	–	1520.2 ± 3.6	1506.6 ± 3.6	1493.2 ± 3.6	–
170000 kPa, Bellows volumetry	1539.1 ± 3.6	–	1525.3 ± 3.6	1511.8 ± 3.6	1498.6 ± 3.6	–
180000 kPa, Bellows volumetry	1544 ± 3.6	–	1530.2 ± 3.6	1516.9 ± 3.6	1503.9 ± 3.6	–
190000 kPa, Bellows volumetry	1548.6 ± 3.6	–	1535.1 ± 3.6	1521.8 ± 3.6	1508.9 ± 3.6	–
200000 kPa, Bellows volumetry	1553.4 ± 3.6	–	1539.9 ± 3.6	1526.8 ± 3.6	1514 ± 3.6	–
